# Experimental data from patent publication US20240217936A1, “5-BENZY[…] AND PREPARATION METHOD THEREFOR AND USE THEREOF” (WEST CHINA HOSPITAL, SICHUAN UNIVERSITY, priority 2021, published 2024).
# Where a name gives a salt, the structure may show the parent alone.
# Columns and labels:
# [1] = tested on: Male SD rats; assay: Sedative and hypnotic effects after oral administration (gavage, righting reflex); format: in vivo, rat; conditions: gavage, 0.16 μmoL/kg; for Onset time: disappearance of righting reflex; for Duration: until recovery of righting reflex
# Experimental: Each test drug was administered by gavage, at a dosage of 0.16 μmoL/kg for each drug. After gavage, the disappearance of the righting reflex was used as a sign of the hypnotic effect induced by the drug, and the recovery of the righting reflex was used as a sign of drug failure. The onset time and duration of the drug were observed.
# [2] = tested on: Male SD rats; assay: Hypnotic effect after tail vein injection (loss of righting reflex); format: in vivo, rat; conditions: for ED50: Rattus norvegicus, 50% of the dose for the disappearance of righting reflex in rats, tail vein injection; for Onset time: tail vein injection of 2× ED50, loss of righting reflex; for Onset time / Duration: rats; for Duration: tail vein injection of 2× ED50, until recovery of righting reflex
# Experimental: Male SD rats, weighing 250-300 g, were randomly divided into groups, with 10 rats in each group. […] The onset times and the duration of hypnosis were recorded.
# [3] = tested on: Male SD rats; assay: Blood pressure change after tail vein injection (mean arterial pressure); conditions: dosage 2× ED50, injection within 15 seconds, 60 min recording, rats under isoflurane
# Experimental: Male SD rats weighing 250-300 g were randomly divided into groups, with 10 rats in each group. General anesthesia was maintained by inhaling isoflurane. By intubating via femoral artery, blood pressure was monitored using the BL-420N biological signal collection and analysis system. minutes after blood pressure stabilization, the baseline mean arterial pressure (MAP0) was measured. Subsequently, the physiological saline solution of each test drug was injected via the tail vein (the dosage of each drug was the same as that in Experiment example 2, with a unified injection […] volume of 1 mL). […] All prodrug molecules were injected within 15 seconds. After injection of each drug, the change in blood pressure was continuously recorded for 60 min. […] The difference MAPΔ+ between the baseline mean arterial pressure (MAP0) and the highest mean arterial pressure (MAPmax) during the 60 min measurement time was calculated; the difference MAPΔ− between the baseline mean arterial pressure (MAP0) and the lowest mean arterial pressure (MAPmin) during the 60 min measurement time was also obtained; both of the difference values were used to calculate the maximum increase rate of mean arterial pressure +Δ%=MAPΔ+/MAP0*100% and the maximum decrease rate of mean arterial pressure −Δ%=MAPΔ−/MAP0*100%, respectively. The maximum increase rate of mean arterial pressure +Δ% and the maximum decrease rate −Δ% reflect the degree of blood pressure change that the body experienced after administration. The larger the value, the greater the blood pressure change that the body experienced.
# [4] = Degradation of prodrug in rat plasma (release of dexmedetomidine, HPLC); format: in vitro ADME; conditions: 37° C.
# Experimental: The test prodrug was formulated as a 1 mg/mL of physiological saline solution, and then 100 μL of the prodrug solution was added to 900 μL of rat plasma. The test solution was vortexed for 30 s before incubation at 37° C. 50 μL of drug-containing plasma was collected at 0.5 min, 1 min, 2 min, 3 min, 5 min, 10 min, 15 min, 20 min, 30 min, and 60 min, respectively, to which was immediately added 150 μL of acetonitrile to terminate the enzymatic reaction, followed by adding the solution of internal standard telmisartan in methanol (30 μL, 20 μg/mL). Then, the resultant solution was centrifuged at 20000 rpm and 4° C. for 10 min. 100 μL of the supernatant was injected for detection by HPLC, and the concentration of dexmedetomidine was determined by an internal standard method. The degradation rate of the prodrug was calculated based on the concentration of dexmedetomidine. The chromatographic conditions are: Swell XDB C18 column (150 mm×4.6 mm, 5 μm); column temperature 30° C.; using gradient elution (see Table 1), mobile phase A: methanol, mobile phase B: 0.1% trifluoroacetic acid in water, and mobile phase C: acetonitrile; detection wavelength: 220 nm; flow rate: 1.0 mL/min; injection volume: 30 μL; retention time: 4.7 minutes for dexmedetomidine and 6.7 minutes for internal standard telmisartan. The linear range of dexmedetomidine: 2.5-100 μg/mL. Instruments: Waters 2695 high-performance liquid chromatograph, Waters 2996 photodiode array detector.
SMILES,Onset time [1] [min],Duration [1] [min],ED50 [2] [mg/kg],Onset time [2] [min],Duration [2] [min],+Δ % (The maximum increase rate of blood pressure) [3],−Δ % (The maximum decrease rate of blood pressure) [3] [%],Degradation rate of prodrug % ([4]; 0.5 min) [%],Degradation rate of prodrug % ([4]; 1 min) [%],Degradation rate of prodrug % ([4]; 2 min) [%],Degradation rate of prodrug % ([4]; 3 min) [%],Degradation rate of prodrug % ([4]; 5 min) [%]
CC(=O)OCn1cnc([C@@H](C)c2cccc(C)c2C)c1 [Compound 1-HCl],15 ± 6,17 ± 8,0.035,3.9 ± 1.5,42 ± 9,*25 ± 12%,43 ± 10,33,68,95,100,
Cc1cccc([C@H](C)c2cn(C(=O)OCC(C)C)cn2)c1C [Compound 4-HCl],14 ± 8,20 ± 13,0.038,2.3 ± 0.9,44 ± 8,34 ± 14%,38 ± 9,31,86,97,100,100
